The values below are quoted from earlier work in patent US20050164162A1, “Methods for multiple parameters screening and evolution of cells to produce small molecules with multiple functionalities” (EVOLVA LTD., C/O DR. IUR. MARTIN EISENRING, priority 2002, published 2005).

The test system of one data set is colorectal cancer. Particulars: persons who regularly use Aspirin and other NSAIDs; population-based studies.
For data set [1] the following is noted: co-administration of retinoids (LG100268)+TZDs; clinical studies.

As for `CC(=O)Oc1ccccc1C(=O)O` [Aspirin], the “decrease in relative risk for colorectal cancer” value in the data set with colorectal cancer is 40-50%.
Turning to `Cc1cc2c(cc1C1(c3ccc(C(=O)O)cn3)CC1)C(C)(C)CCC2(C)C` [LG100268], the “increases insulin sensitivity and glucose uptake” value in data set [1] is reported as 60%.
